Test system: pentagastrin stimulated gastric acid secretion
Test: Rat Lumen Perfused Stomach (pentagastrin stimulated gastric acid secretion)
Format: in vivo
Conditions: i.v., 10 μmole/kg
Text: B. Rat Lumen Perfused Stomach (pentagastrin stimulated gastric acid secretion).
Using a modification of the procedure described by Ghosh & Schild (Br. J. Pharmacology, 13, 54, 1958), the compounds of the following examples were found on i.v. administration at a concentration of 10 μmole/kg to cause an inhibition of pentagastrin stimulated gastric acid secretion a follows: […]

| Compound | % inhibition of pentagastrin stimulated gastric acid secretion [%] |
| --- | --- |
| CCCC(=O)c1cnc2c(C(=O)OC)cccc2c1Nc1ccccc1C [Example 1, methyl 3-butyryl-4-(2-methylphenylamino)quinoline-8-carboxylate] | 42 |
| CCCC(=O)c1cnc2c(C(N)=O)cccc2c1Nc1ccccc1C [Example 2, 3-butyryl-4-(2-methylphenylamino)quinoline-8-carboxamide] | 39 |

Reference: patent publication US5089498A, “Substituted 4-aminoquinoline derivatives as gastric acid secretion inhibitors” (SmithKline Beckman Intercredit B.V., priority 1988, dated 1992)
